In ChEMBL document CHEMBL4130372, “The antitrypanosomal and antitubercular activity of some nitro(triazole/imidazole)-based aromatic amines” (Eur J Med Chem, 2017):
In brackets after ≈: the same amount, converted by molar mass.

Experiments:
Type in all cases: functional
[1] = system: Mycobacterium tuberculosis; test: Antitubercular activity against Mycobacterium tuberculosis FQ-R1 harboring gyrB D94N mutant after 5 days by fluorescence-based assay
[2] = system: Mycobacterium tuberculosis; test: Antitubercular activity against Mycobacterium tuberculosis INH-R1 harboring katG Y155 truncated mutant after 5 days by fluorescence-based assay
[3] = system: Mycobacterium tuberculosis; test: Antitubercular activity against Mycobacterium tuberculosis RIF-R1 harboring rpoB S522L mutant after 5 days by fluorescence-based assay

Row | SMILES | MIC [1] | MIC [2] | MIC [3]
1 | O=[N+]([O-])c1nccn1CCCCNc1ccnc2c(Cl)cccc12 | >200 µM | >200 µM | >200 µM
2 | O=[N+]([O-])c1ncn(CCCCNc2ncnc3ccccc23)n1 | >200 µM | 200 µM (≈ 62.7 µg/mL) | >200 µM
3 | NNC(=O)c1ccncc1 [ISONIAZID] | 0.35 µM (≈ 0.048 µg/mL) | >200 µM | 0.31 µM (≈ 0.0425 µg/mL)
4 | C[C@H]1COc2c(N3CCN(C)CC3)c(F)cc3c(=O)c(C(=O)O)cn1c23.C[C@H]1COc2c(N3CCN(C)CC3)c(F)cc3c(=O)c(C(=O)O)cn1c23.O [LEVOFLOXACIN] | 14 µM | 1.1 µM | 0.85 µM
5 | CO[C@H]1/C=C/O[C@@]2(C)Oc3c(C)c(O)c4c(O)c(c(/C=N/N5CCN(C)CC5)c(O)c4c3C2=O)NC(=O)/C(C)=C\C=C\[C@H](C)[C@H](O)[C@@H](C)[C@@H](O)[C@@H](C)[C@H](OC(C)=O)[C@@H]1C [RIFAMPIN] | >0.04 µM | 0.012 µM (≈ 0.00988 µg/mL) | 7.2 µM (≈ 5.93 µg/mL)
